Laboratory results published in patent US10161932B2, “Azetidine-substituted fluorescent compounds” (HOWARD HUGHES MEDICAL INSTITUTE, priority 2014, dated 2018).

Columns and labels:
HaloTag = test: Labeling kinetics and brightness of HaloTag ligand conjugates in vitro; assay type: biochemical; details: compared with TMR and Cy3 HaloTag ligands
Excerpt: (§1) The labeling kinetics of TMR and JF549 HaloTag ligands were compared with a novel Cy3 HaloTag ligand while measuring the brightness and photon yield of the resulting conjugates.

[1] = test system: HaloTag-histone 2B (H2B) fusion; test: Live-cell confocal labeling of HaloTag-H2B; assay type: cell-based; details: live cells expressing HaloTag-H2B
Description: as §1
(§2) HeLa cells (ATCC) and U2OS cells (ATCC) were cultured in Dulbecco's modified eagle medium (DMEM; Life Technologies) supplemented with 10% v/v fetal bovine serum (FBS; Life Technologies), 1 mM GlutaMax (Life Technologies), and 1 mM sodium pyruvate (Sigma) and maintained at 37° C. in a humidified 5% v/v CO2 environment. These cell lines undergo regular mycoplasma testing by the Janelia Cell Culture Facility. Cells were transfected with HaloTag-H2B, HaloTag-tubulin, SnapTag-TetR, or SnapTag-H2B using an Amaxa Nucleofector (Lonza). […]
(§3) Three separate systems were used to acquire microscopic images. […] Other live-cell single super-resolution imaging experiments were recorded on a custom-built three-camera RAMM frame (ASI) microscope using an 1.4 NA PLAPON 60×OSC objective (Olympus), and a 300 mm focal length tube lens (LAO-300.0, Melles Griot), resulting in 100× overall magnification. […] Fluorescence was detected with a back-illuminated EMCCD camera (Andor Technology, Ixon Ultra DU-897U-CSO-EXF, 17 MHz EM amplifier), which was controlled through Micro-Manager (1.4.17).

HaloTag protein = details: ligand 5 μM, 10 mM HEPES pH 7.3 with 0.1 mg·mL^−1 CHAPS
Description: To measure fluorescence of HaloTag ligands upon reaction with HaloTag protein, absorbance measurements were performed in 1 mL quartz cuvettes. HaloTag protein was used as a 100 μM solution in 75 mM NaCl, 50 mM TRIS. HCl, pH 7.4 with 50% v/v glycerol (TBS-glycerol). HaloTag ligands of JF646 and SiTMR (5 μM) were dissolved in 10 mM HEPES, pH 7.3 containing 0.1 mg·mL^−1 CHAPS. An aliquot of HaloTag protein (1.5 equiv) or an equivalent volume of TBS-glycerol blank was added and the resulting mixture was incubated until consistent absorbance signal was observed (˜30 min). […] Absorbance scans are averages (n=2).

HaloTag-H2B = test: No wash wide-field imaging of live HeLa cells expressing HaloTag-H2B; assay type: cell-based; details: ligand 100 nM
Description: Next, “no wash” imaging experiments were performed using cells expressing the HaloTag-H2B fusion.
as §2, with “(Lonza). Before the imaging experiments, transfected cells were transferred onto a No. 1 coverslip (Warner Instruments) that was cleaned by Piranha solution (3:1 v/v mixture of concentrated H2SO4 and 30% v/v hydrogen peroxide).” for “(Lonza).”
as §3

Row | SMILES | labeling kinetics (HaloTag) | live-cell labeling / cell permeability [1] | increase in absorbance upon reaction with excess HaloTag protein (HaloTag protein) | nonspecific staining / background (HaloTag-H2B)
1 | O=C(NCCOCCOCCCCCCCl)c1ccc(C(=O)[O-])c(-c2c3ccc(=[N+]4CCC4)cc-3oc3cc(N4CCC4)ccc23)c1 [Example 21, 4-((2-(2-((6-Chlorohexyl)oxy)ethoxy)ethyl)carbamoyl)-2-(3,6-di(azetidin-1-yl)xanthylium-9-yl)benzoate] | comparable labeling kinetics to the TMR ligand | efficiently crossed the membrane of live cells and selectively labeled the HaloTag protein |  | 
2 | C[Si]1(C)C2=CC(=[N+]3CCC3)C=CC2=C(c2cc(C(=O)NCCOCCOCCCCCCCl)ccc2C(=O)[O-])c2ccc(N3CCC3)cc21 [Example 35, 4-((2-(2-((6-Chlorohexyl)oxy)ethoxy)ethyl)carbamoyl)-2-(3,7-di(azetidin-1-yl)-5,5-dimethyldibenzo[b,e]silin-10-ylium-10(5H)-yl)benzoate] |  |  | 21 fold | lower nonspecific staining
